Test: Tested for competitive inhibitory activity against beta-Glucosidase

Compared with `CO[C@@H]1O[C@@H](CO)[C@@H](Oc2cccnc2S[C@H]2[C@H](O)[C@H](O)[C@H](OC)O[C@H]2CO)[C@H](O)[C@@H]1O`, `COC1OC(CO)C(Sc2ncccc2O)C(O)C1O` (stereo unspecified) [6-Hydroxymethyl-5-(3-hydroxy-pyridin-2-ylsulfanyl)-2-methoxy-tetrahydro-pyran-3,4-diol] is 6.9-fold lower in Ki: 5.5 mM for the first, 0.8 mM for the second. The second binds more tightly here.

Going from `COC1OC(CO)C(Sc2nc(CO)ccc2O)C(O)C1O` (stereo unspecified) [5-(3-Hydroxy-6-hydroxymethyl-pyridin-2-ylsulfanyl)-6-hydroxymethyl-2-methoxy-tetrahydro-pyran-3,4-diol] to `COC1OC(CO)C(Sc2nc(CN(C)C)ccc2O)C(O)C1O` (stereo unspecified) [5-(6-Dimethylaminomethyl-3-hydroxy-pyridin-2-ylsulfanyl)-6-hydroxymethyl-2-methoxy-tetrahydro-pyran-3,4-diol], the Ki rises from 4 mM to 20 mM (5-fold). The first binds more tightly here.

First: COC1OC(CO)C(Sc2nc(C)ccc2O)C(O)C1O (stereo unspecified) [6-Hydroxymethyl-5-(3-hydroxy-6-methyl-pyridin-2-ylsulfanyl)-2-methoxy-tetrahydro-pyran-3,4-diol]
Second: COC1OC(CO)C(Sc2ccccn2)C(O)C1O (stereo unspecified) [6-Hydroxymethyl-2-methoxy-5-(pyridin-2-ylsulfanyl)-tetrahydro-pyran-3,4-diol]
The Ki of the first is 1.8-fold lower: 4.5 mM for the first, 8 mM for the second.
